Measurements taken from patent publication US7888357B2, “Anti-inflammatory and protein kinase inhibitor compositions and related methods for downregulation of detrimental cellular responses and inhibition of cell death” (Northwestern University, priority 2001, dated 2011).

Key:
[1] = test system: BV-2 microglial cells; test: Cell-based screen for inhibition of LPS-stimulated NO release (Griess assay); parameters: species or system murine; conditions: LPS-stimulated BV-2 cells, 24 hr, nitrite in conditioned media
Method: FIG. 1. Cell-based screen for inhibition of LPS-stimulated NO release. […] Inhibition is expressed as percent control, where the control is the NO accumulation from cells stimulated with LPS alone.
The rationale for using BV-2 cells in high throughput screening was the paucity of well-characterized human microglial cell lines, and the relevant activation responses and signaling pathways reflect those seen in human and rodent primary microglial cultures. Compounds were tested for their effects on NO accumulation in conditioned media of LPS-stimulated BV-2 cells by measurement of nitrite production by the Griess assay as a read-out for iNOS activity, as described previously. Stock solutions of compounds were prepared in dimethylsulfoxide (DMSO) or in water. When stock solutions were prepared in DMSO, control wells contained the same final concentration of DMSO as the compound-containing wells. […] Solutions of compounds for cell treatments were diluted to a 10× final concentration by dilution of stock solutions in αMEM media. The commercially available drugs tested were: compound 5 (KN93 from Alexis); compound 6 (pyrrolidinedithiocarbamate or PDTC from Sigma), compound 7 (SB203580 from Alexis Corporation), compound 8 (PD98059 from Alexis Corporation), and compound 9 (UO126 from Cell Signaling). […] Respectively, Western blots of cell lysates were done with the following antibodies: monoclonal anti-iNOS (1:1000 dilution, Transduction Labs); polyclonal anti-rat IL-1β (1:1000 dilution, R&D Systems, Inc.); monoclonal anti-glial fibrillary acidic protein (GFAP) (1:[…] dilution, Sigma); polyclonal anti-rat alioE (1:15,000 dilution) prepared as described; polyclonal anti-COX-2 (1:500 dilution) and monoclonal anti-phosphoATF2 (1:1000 dilution) from Santa Cruz Biotechnology, polyclonal anti-phosphoCREB (1:1000 dilution), and polyclonal anti-phosphop38 MAPK (1:1000 dilution). Reconstituted enzyme assays were done as described s. The sources of protein kinases were: bovine heart PKA from Promega, rat brain PKC from Calbiochem, rat CaMKII from New England Biolabs, chicken gizzard MLCK prepared as described, and a p38 MAP kinase kit containing recombinant Xenopus p38-MAPK and its human substrate from Upstate Biotechnology. The catalytic domains of these protein kinases retain a high level of amino acid sequence identity across mammalian species, consistent with the lack of documented major differences across species for the in vitro catalytic activity of a given kinase.
FIG. 4. Cell-based screen for functional effects of synthetic compounds on LPS-stimulated NO release from BV-2 cells. BV-2 cells were incubated for 24 hr with LPS (500 ng/ml) in the presence of increasing concentrations of: A) MW01-070C; B) MW01-026Z; C) MW01-118Z; D) MW01-119Z; E) MW01-051Z; F) MW01-160Z; G) MW01-196A; H) MW01-024Z; I) SB203580; J) PDTC; K) U0126; L) PD98059. The nitrite levels in conditioned media were determined. Inhibition is expressed as percentage of control values, where the control is the nitrite level in cells stimulated with LPS alone.
Compounds were tested for their effects on NO production by LPS-stimulated BV-2 cells as previously described [Mirzoeva, S., Koppal, T., Petrova, T. V., Lukas, T. J., Watterson, D. M., and Van Eldik, L. J. (1999) Brain Res. 844, 126-134]. The levels of nitrite, a stable NO metabolite, in conditioned media were determined by the Griess assay as previously described [Hu, J., Castets, F., Guevara, J. L., and Van Eldik, L. J. (1996) J. Biol. Chem. 271, 2543-2547]. Stock solutions of compounds were prepared in DMSO or in water. When stock solutions were prepared in DMSO, control wells contained the same final concentration of DMSO as the compound-containing wells. Solutions of compounds for cell treatments were diluted to a 10× final concentration by dilution of stock solutions of drugs in αMEM media.

[2] = biological target: T1, myosin light chain kinase (MLCK) (Gallus gallus, UniProt P11799); test: Reconstituted enzyme assay, MLCK; assay type: biochemical, chicken; conditions: Table 6; read-out: Inhibition MLCK
T1 construct: chicken gizzard MLCK prepared as described; from tissue; host or cells: chicken gizzard
Method: (§1) [table] […] The rationale for using BV-2 cells in high throughput screening was the paucity of well-characterized human microglial cell lines, and the relevant activation responses and signaling pathways reflect those seen in human and rodent primary microglial cultures. Compounds were tested for their effects on NO accumulation in conditioned media of LPS-stimulated BV-2 cells by measurement of nitrite production by the Griess assay as a read-out for iNOS activity, as described previously. Stock solutions of compounds were prepared in dimethylsulfoxide (DMSO) or in water. When stock solutions were prepared in DMSO, control wells contained the same final concentration of DMSO as the compound-containing wells. […] Solutions of compounds for cell treatments were diluted to a 10× final concentration by dilution of stock solutions in αMEM media. […] Reconstituted enzyme assays were done as described s. The sources of protein kinases were: bovine heart PKA from Promega, rat brain PKC from Calbiochem, rat CaMKII from New England Biolabs, chicken gizzard MLCK prepared as described, and a p38 MAP kinase kit containing recombinant Xenopus p38-MAPK and its human substrate from Upstate Biotechnology. The catalytic domains of these protein kinases retain a high level of amino acid sequence identity across mammalian species, consistent with the lack of documented major differences across species for the in vitro catalytic activity of a given kinase.

[3] = biological target: T2, CaMKII (Rattus norvegicus, UniProt P11275); test: Reconstituted enzyme assay, CaMKII; assay type: biochemical; conditions: Table 6; read-out: Inhibition CAMKII
T2 construct: purchased New England Biolabs
Method: as §1

[4] = biological target: death associated protein kinase (DAPK) (Homo sapiens, UniProt P53355); test: Enzyme assay, DAPK; assay type: biochemical; conditions: Table 6; read-out: Inhibition DAPK
Method: Therefore, compound MW01-026Z was selected as a starting point for variations on component A (Table 6). […] However, none of the A variations appeared to improve the activity and selectivity profile of CompoundMW01-026Z. (For purposes of illustration, only, component G was maintained throughout as an acyl moiety, while component R2 was varied as shown. All such compositions are available using the synthetic techniques described herein. Enzyme assays were conducted per procedures described elsewhere herein.) A more comprehensive structure activity relationship is summarized in Table 7, below.
With reference to the compositions of Table 3 and the enzyme assay techniques described elsewhere herein, Table 7 provides structural activity relationships observed, in accordance with this invention.

[5] = test system: rat astrocytes; test: Western blot of glial activation responses in rat astrocyte cultures; assay type: cell-based; conditions: LPS-stimulated rat astrocytes, 24 hr, Western blot
Method: FIG. 2. Selective effects of compound 1 (MW01-070C) on glial activation responses and gene-regulating protein kinase pathways. BV-2 cells and rat astrocytes were treated with control buffer (C) or stimulated with LPS or Aβ1-42 peptide in the presence or absence of compound 1, and cell lysates were analyzed by Western blots. (A) Astrocytes treated with LPS and compound 1 show concentration-dependent inhibition of iNOS and IL-1β production but not GFAP. (B) Astrocytes treated with A β1-42 and compound 1 (10 μM) show inhibition of iNOS and IL-1β but not apoE and COX-2. (C) BV-2 cells treated with LPS and compound 1 (10 μM) show inhibition of phosphorylated (p-) CREB but not p-p38 and p-ATF2, as assayed with antibodies that are specific for the phosphorylated forms of the proteins. Data are expressed as percent control (mean±SD; n=3 determinations).
The rationale for using BV-2 cells in high throughput screening was the paucity of well-characterized human microglial cell lines, and the relevant activation responses and signaling pathways reflect those seen in human and rodent primary microglial cultures. Compounds were tested for their effects on NO accumulation in conditioned media of LPS-stimulated BV-2 cells by measurement of nitrite production by the Griess assay as a read-out for iNOS activity, as described previously. Stock solutions of compounds were prepared in dimethylsulfoxide (DMSO) or in water. When stock solutions were prepared in DMSO, control wells contained the same final concentration of DMSO as the compound-containing wells. […] Solutions of compounds for cell treatments were diluted to a 10× final concentration by dilution of stock solutions in αMEM media. The commercially available drugs tested were: compound 5 (KN93 from Alexis); compound 6 (pyrrolidinedithiocarbamate or PDTC from Sigma), compound 7 (SB203580 from Alexis Corporation), compound 8 (PD98059 from Alexis Corporation), and compound 9 (UO126 from Cell Signaling). SB203580, U0126 and PD98059, PDTC, and KN93 are used as pathway-selective inhibitors of p38 MAPK, MEK1/2, NFκB, and CaMKII signaling pathways. Respectively, Western blots of cell lysates were done with the following antibodies: monoclonal anti-iNOS (1:1000 dilution, Transduction Labs); polyclonal anti-rat IL-1β (1:1000 dilution, R&D Systems, Inc.); monoclonal anti-glial fibrillary acidic protein (GFAP) (1:[…] dilution, Sigma); polyclonal anti-rat alioE (1:15,000 dilution) prepared as described; polyclonal anti-COX-2 (1:500 dilution) and monoclonal anti-phosphoATF2 (1:1000 dilution) from Santa Cruz Biotechnology, polyclonal anti-phosphoCREB (1:1000 dilution), and polyclonal anti-phosphop38 MAPK (1:1000 dilution). Reconstituted enzyme assays were done as described s. The sources of protein kinases were: bovine heart PKA from Promega, rat brain PKC from Calbiochem, rat CaMKII from New England Biolabs, chicken gizzard MLCK prepared as described, and a p38 MAP kinase kit containing recombinant Xenopus p38-MAPK and its human substrate from Upstate Biotechnology. The catalytic domains of these protein kinases retain a high level of amino acid sequence identity across mammalian species, consistent with the lack of documented major differences across species for the in vitro catalytic activity of a given kinase.
FIG. 5. Effects of two compounds on LPS-stimulated INOS and IL-1β production in rat astrocyte cultures. Astrocyte cultures were incubated for 24 hr with control buffer (C), LPS (100 ng/ml) alone, or LPS in the presence of increasing concentrations (0.1, 0.3, 1, 3, 10 μM) of MW01-070C (panel A) or MW01-196A (panel B). The levels of iNOS, proIL-1β, and GFAP were determined by Western blot of cell lysates.
FIG. 6. Effects of MW01-070C on astrocytes treated with various activating stimuli, and analysis of multiple activation responses. Astrocyte cultures were stimulated for 12 hr with Aβ (10 μM), S100B (0.5 μM), or LPS (100 ng/ml) in the absence (−) or presence (+) of MW01-070C (10 μM). […]

Sequence of death associated protein kinase (DAPK) (P53355 whole entry, species assumed): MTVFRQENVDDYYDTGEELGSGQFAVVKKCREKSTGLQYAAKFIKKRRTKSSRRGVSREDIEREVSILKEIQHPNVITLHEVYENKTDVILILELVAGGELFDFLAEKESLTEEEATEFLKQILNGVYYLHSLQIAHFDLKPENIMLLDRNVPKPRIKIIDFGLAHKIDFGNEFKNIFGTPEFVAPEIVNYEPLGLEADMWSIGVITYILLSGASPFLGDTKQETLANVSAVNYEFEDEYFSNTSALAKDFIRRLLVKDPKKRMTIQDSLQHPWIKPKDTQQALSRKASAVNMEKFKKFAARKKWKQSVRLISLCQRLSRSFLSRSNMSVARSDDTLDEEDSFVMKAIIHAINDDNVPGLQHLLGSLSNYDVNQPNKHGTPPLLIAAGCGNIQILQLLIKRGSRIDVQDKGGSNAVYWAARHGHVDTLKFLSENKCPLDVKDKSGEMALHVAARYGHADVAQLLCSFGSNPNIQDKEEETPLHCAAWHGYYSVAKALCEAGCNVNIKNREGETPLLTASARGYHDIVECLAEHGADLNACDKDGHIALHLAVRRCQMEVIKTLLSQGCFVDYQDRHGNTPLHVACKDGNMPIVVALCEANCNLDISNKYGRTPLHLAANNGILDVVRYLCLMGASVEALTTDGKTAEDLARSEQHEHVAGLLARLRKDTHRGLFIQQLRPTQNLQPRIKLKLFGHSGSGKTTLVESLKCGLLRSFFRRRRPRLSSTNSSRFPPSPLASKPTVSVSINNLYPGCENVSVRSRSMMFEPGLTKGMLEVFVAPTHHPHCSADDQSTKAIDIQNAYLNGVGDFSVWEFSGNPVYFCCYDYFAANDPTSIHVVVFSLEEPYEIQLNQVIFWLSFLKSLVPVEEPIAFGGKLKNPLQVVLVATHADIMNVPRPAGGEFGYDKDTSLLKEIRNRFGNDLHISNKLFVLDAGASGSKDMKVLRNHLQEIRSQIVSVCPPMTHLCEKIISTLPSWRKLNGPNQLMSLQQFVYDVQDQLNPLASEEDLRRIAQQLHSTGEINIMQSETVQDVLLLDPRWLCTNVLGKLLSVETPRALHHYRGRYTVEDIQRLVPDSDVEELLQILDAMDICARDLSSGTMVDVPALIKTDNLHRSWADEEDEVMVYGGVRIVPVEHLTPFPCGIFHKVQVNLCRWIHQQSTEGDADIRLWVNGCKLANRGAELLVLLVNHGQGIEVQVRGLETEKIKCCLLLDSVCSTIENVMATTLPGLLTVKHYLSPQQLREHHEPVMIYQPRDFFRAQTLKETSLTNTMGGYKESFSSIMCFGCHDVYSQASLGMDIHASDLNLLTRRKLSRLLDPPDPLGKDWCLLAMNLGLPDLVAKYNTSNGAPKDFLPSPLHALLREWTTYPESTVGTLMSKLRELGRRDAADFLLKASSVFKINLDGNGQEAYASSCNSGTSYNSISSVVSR
T1 sequence (P11799 935-1906): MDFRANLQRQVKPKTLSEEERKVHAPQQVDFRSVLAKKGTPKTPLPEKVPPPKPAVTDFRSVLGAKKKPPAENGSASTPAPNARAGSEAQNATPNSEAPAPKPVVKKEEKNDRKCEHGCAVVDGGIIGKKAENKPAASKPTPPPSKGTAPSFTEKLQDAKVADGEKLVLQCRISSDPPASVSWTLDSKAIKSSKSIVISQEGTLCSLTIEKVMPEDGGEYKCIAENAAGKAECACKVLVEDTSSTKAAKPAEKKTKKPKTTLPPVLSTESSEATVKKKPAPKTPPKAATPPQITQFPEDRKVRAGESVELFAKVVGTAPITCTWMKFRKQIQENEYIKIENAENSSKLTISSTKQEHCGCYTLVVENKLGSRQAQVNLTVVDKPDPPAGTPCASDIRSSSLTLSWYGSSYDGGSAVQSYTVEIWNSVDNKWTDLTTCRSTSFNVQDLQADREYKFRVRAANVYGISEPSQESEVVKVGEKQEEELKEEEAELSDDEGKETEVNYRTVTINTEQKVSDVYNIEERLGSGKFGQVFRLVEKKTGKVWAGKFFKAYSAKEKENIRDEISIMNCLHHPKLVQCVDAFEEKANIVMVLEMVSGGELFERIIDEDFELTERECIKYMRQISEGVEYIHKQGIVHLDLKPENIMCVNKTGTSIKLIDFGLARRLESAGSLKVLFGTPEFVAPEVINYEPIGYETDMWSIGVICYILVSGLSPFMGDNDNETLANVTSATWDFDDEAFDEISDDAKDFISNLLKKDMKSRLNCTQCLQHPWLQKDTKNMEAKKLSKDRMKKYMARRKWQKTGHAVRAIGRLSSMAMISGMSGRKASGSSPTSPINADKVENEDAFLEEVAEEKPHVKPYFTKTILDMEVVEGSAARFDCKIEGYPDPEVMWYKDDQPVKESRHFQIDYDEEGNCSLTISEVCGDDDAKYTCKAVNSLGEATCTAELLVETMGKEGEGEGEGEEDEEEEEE
T2 sequence (P11275 1-325 limits assumed): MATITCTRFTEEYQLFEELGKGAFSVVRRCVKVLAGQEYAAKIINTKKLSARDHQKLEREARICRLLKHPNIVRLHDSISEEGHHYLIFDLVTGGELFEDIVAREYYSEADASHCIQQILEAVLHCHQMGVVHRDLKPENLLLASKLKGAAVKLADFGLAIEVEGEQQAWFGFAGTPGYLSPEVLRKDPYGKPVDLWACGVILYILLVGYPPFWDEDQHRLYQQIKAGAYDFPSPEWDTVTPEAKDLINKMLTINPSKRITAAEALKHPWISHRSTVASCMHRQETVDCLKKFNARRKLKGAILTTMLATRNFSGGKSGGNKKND

IC50 [2]	IC50 [3]	SMILES	inhibition of NO accumulation by activated glia [1]	IC50 [4]	also measured
		C[S+]([O-])c1ccc(-c2nc(-c3ccncc3)c(-c3ccc(F)cc3)[nH]2)cc1 (centres unmarked) [Compound 7, SB203580, reference compound]	less effective		
		COc1cccc(-c2cc(=O)c3ccccc3o2)c1N [Compound 8, PD98059, reference compound]	less effective		
		N#CC(=C(/N)Sc1ccccc1N)/C(C#N)=C(\N)Sc1ccccc1N [Compound 9, U0126, reference compound]	less effective		
< 20 µM	50 to 100 µM	Cc1cc(NC(=O)CCCCCCCCCCn2nc3c(cc2=N)CCc2ccccc2-3)nnc1-c1ccccc1 [MW01-008B]		50 to 100 µM	
> 100 µM	> 100 µM	Cc1ccc(NC(=O)CCCCCCCCCCn2nc3c(cc2=N)CCc2ccccc2-3)nn1 [MW01-020B]		> 100 µM	
		O=C(CCCCCCCCCCN1CCN(c2ncccn2)CC1)N1CCN(c2ncccn2)CC1 [MW01-024Z]	does not have any greater cellular activity than commercially available drugs and inhibitors		
< 20 µM	> 100 µM	Cc1ccc(=N)n(CCCCCCCCCCC(=O)Nc2ccc(-c3ccccc3)nn2)n1 [MW01-031Z]		> 100 µM	
> 100 µM		O=C(CCCCCCCCCNc1ccc(-c2ccccc2)nn1)Nc1ccc(-c2ccccc2)nn1 [MW01-038B]		> 100 µM	
		N=c1cc2c(nn1CCCCCCCC(=O)N1CCN(c3ncccn3)CC1)-c1ccccc1CC2 [MW01-051Z]	significant NO inhibition activity		
> 100 µM		N=c1ccc(-c2ccccc2)nn1CCCCCCCC(=O)Nc1ccc(-c2ccccc2)nn1 [MW01-086B]		> 100 µM	
20 to 50 µM	> 100 µM	N=c1cc2c(nn1CCCCCCCC(=O)Nc1ccc(-c3ccccc3)nn1)-c1ccccc1CC2 [MW01-097B]		> 100 µM	
20 to 50 µM	> 100 µM	Cc1cc(=N)n(CCCCCCCCCCC(=O)Nc2ccc(-c3ccccc3)nn2)nc1-c1ccccc1 [MW01-103B]		50 to 100 µM	
		N=c1cc2c(nn1CCCCCCCCCCC(=O)Nc1nnc(-c3ccccc3)c3ccccc13)-c1ccccc1CC2 [MW01-119Z]	better efficacy than established anti-inflammatory compounds like SB203580		
		N=c1cc2c(nn1CCCCC(=O)N1CCN(c3ncccn3)CC1)-c1ccccc1CC2 [MW01-160Z]	no more active than inhibitors of the NFκB pathway (PDTC)		
		Cc1ccn(CCCCCCCCCCC(=O)N2CCN(c3ncccn3)CC2)c(=N)c1 [MW01-196-AS]	little activity		IL-1β production [5]: does not show dose dependent inhibition; iNOS production [5]: does not show dose dependent inhibition
